System: CPT1L mRNA
Experiment: CPT1L mRNA in stably transfected AtT20 cells (northern blot)
Type: cell-based
Conditions: AtT20 cells expressing CPT1L-Ribo; normalized to β-actin
Description: Potent anorexic drugs such as fatty acid synthase (FAS) inhibitors increase the levels of malonyl-CoA, which is derived from the carboxylation of acetyl-CoA by the enzyme acetyl-CoA carboxylase (ACC). High levels of malonyl-CoA in turn inhibit CPT1-dependent oxidation of long-chain fatty acyl-CoAs (LC-CoAs). Similarly, the ICV administration of exogenous fatty acids (LCFA) directly increases the cellular levels of LC-CoA. In either case the resulting increase in intracellular LC-CoA concentration leads to inhibition of feeding behavior. […] LEFT: A probe specific for the liver isoform of CPT1 (CPT1L) detected a ˜4.3 Kb band in the liver (L) and in hypothalamus (H), but not in hind limb muscle (M). RIGHT: Hybridization with a muscle-specific CPT1 probe (CPT1M) detected a ˜3 Kb band in […] muscle (M), but not in hypothalamus. Each lane contained 1.5 μg of mRNA. […] About 200 stable clones were selected for neomycin resistance and analyzed by Northern blot. […] Data are expressed as % of control after normalization with β-actin expression. […] Levels of LC-CoAs were measured by HPLC in liver and skeletal muscle tissues of rats infused IV with vehicle (▪) or CPT1 inhibitors (□). […]
Quantitation of CPT1 and neuropeptides mRNA by Northern and real-time PCR. […]

CPT1L-Ribo: plasmid (pTarget, CMV promoter) expressing a hammerhead ribozyme that specifically cleaves rat CPT1L mRNA, complexed to PEI for ICV injection (DNA CUGUACCAAAGAGCUGUAGAGUCCGUGAGGACGAAACGCCGCUCACAAUG)
less CPT1L mRNA than control cells transfected with vector alone: ~50%

— patent publication US7705016B2, “Regulation of food intake by modulation of long-chain fatty acyl-CoA levels in the hypothalamus” (Albert Einstein College of Medicine of Yeshiva University, priority 2003, dated 2010)
